Patent USRE47689E1, “Compounds for treating spinal muscular atrophy” (PTC Therapeutics, Inc., priority 2011, dated 2019)
Read-outs that look alike come from different tables or passages of the source.

Tests used:
Smn protein = Smn protein assay in cultured cells (SMN HTRF); type: cell-based, human; details: 48 hours; for EC1.5x (concentration giving 1.5-fold Smn protein increase): SMA Type 1 patient fibroblast cells (GM03813), 7-point concentration curve, SMN HTRF, concentration producing 1.5 times Smn protein vs DMSO vehicle control, read-out: EC1.5x for Smn protein expression; for maximum fold (Fold) increase of Smn protein: SMA patient fibroblast cells, 7-point concentration data, fold increase relative to vehicle control (SMN HTRF)
Summary of the method: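 Smn in SMA fibroblast lysates, measured by anti-SMN HTRF after 48 h compound exposure; EC1.5x from fold change over vehicle.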

[1] = test system: SMN2 minigene (full length SMN2 minigene mRNA containing SMN2 exon 7); assay: SMN2 minigene mRNA splicing RT-qPCR assay in cultured cells; type: cell-based, human; details: Homo sapiens, HEK293-H, read-out: EC1.5x for production of full length SMN2 mRNA
Summary of the method: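 Lysates → one-step RT-qPCR, minigene-specific primers (0.4 μM final) + GAPDH multiplex, 40 cycles. FL/GAPDH vs DMSO; EC1.5x, star-binned.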

[2] = HEK293H cells stably transfected with SMN2-A minigene, 24 hours, 7-point concentration curve, 1.5-fold relative to vehicle-treated cells

Structure (SMILES)	EC1.5x (concentration giving 1.5-fold Smn protein increase) (Smn protein) [nM]	maximum fold (Fold) increase of Smn protein (Smn protein)	EC (1.5-fold) [1, 2] [µM]	melting point [°C]	EC (1.5-fold) ([1]; 24 h) [µM]
Cc1cn2cc(-c3cc4ccc(C5CCN(CCO)CC5)cc4oc3=O)nc2c(C)n1 [Compound 750, 3-(6,8-dimethylimidazo[1,2-a]pyrazin-2-yl)-7-[1-(2-hydroxyethyl)piperidin-4-yl]-2H-chromen-2-one]	< 300	***** (fold increase >1.65)	< 0.1	207 to 212	
Cc1cn2cc(-c3cc4ccc(N5C[C@@H]6[C@H](C5)[C@H]6N(C)C)cc4oc3=O)nc2c(C)n1 [Compound 761, 7-[(1R,5S,6s)-6-(dimethylamino)-3-azabicyclo[3.1.0]hex-3-yl]-3-(6,8-dimethylimidazo[1,2-a]pyrazin-2-yl)-2H-chromen-2-one]	< 300	**** (fold increase between >1.5 and ≤1.65)	< 0.1	271 to 274	
CCN1CCN(c2ccc3cc(-c4cn5cc(C)ncc5n4)c(=O)oc3c2)C[C@@H]1C [Compound 627, 7-[(3S)-4-ethyl-3-methylpiperazin-1-yl]-3-(6-methylimidazo[1,2-a]pyrazin-2-yl)-2H-chromen-2-one]	< 300	***** (fold increase >1.65)	< 0.1	205 to 208	
Cc1cn2cc(-c3cc4ccc(CCN(C)C)cc4oc3=O)nc2c(C)n1 [Compound 864, 7-[2-(dimethylamino)ethyl]-3-(6,8-dimethylimidazo[1,2-a]pyrazin-2-yl)-2H-chromen-2-one]	< 300	***** (fold increase >1.65)	< 0.1	219 to 223	
Cc1cn2cc(-c3cc4ccc(N5CCNCC5)cc4oc3=O)nc2s1 [Compound 96, 3-(2-methylimidazo[2,1-b][1,3]thiazol-6-yl)-7-(piperazin-1-yl)-2H-chromen-2-one]	3000 to 10000	*** (fold increase between >1.35 and ≤1.5)	0.1 to 0.3	> 310	
Cc1nccn2cc(-c3cc4ccc(N5C[C@@H](C)N[C@@H](C)C5)cc4oc3=O)cc12 [Compound 554, 7-[(3R,5S)-3,5-dimethylpiperazin-1-yl]-3-(1-methylpyrrolo[1,2-a]pyrazin-7-yl)-2H-chromen-2-one]	< 300	***** (fold increase >1.65)	< 0.1	200 to 203	
Cc1cn2cc(-c3cc4ccc(N[C@@H]5C[C@H]6CCC[C@@H](C5)N6C)cc4oc3=O)nc2c(C)n1 [Compound 702, 3-(6,8-dimethylimidazo[1,2-a]pyrazin-2-yl)-7-{[(3-exo)-9-methyl-9-azabicyclo[3.3.1]non-3-yl]amino}-2H-chromen-2-one]		* (maximum fold increase of ≤1.2)		279 to 287	1 to 3
Cc1cc(C)c2nc(-c3cc4ccc(N5CCNCC5)cc4oc3=O)cn2c1 [Compound 260, 3-(6,8-dimethylimidazo[1,2-a]pyridin-2-yl)-7-(piperazin-1-yl)-2H-chromen-2-one]		* (maximum fold increase of ≤1.2)	0.3 to 1	219 to 229	
C[C@@H]1CN(c2ccc3cc(-c4cc5ccccc5o4)c(=O)oc3c2)C[C@H](C)N1 [Compound 604, 3-(1-benzofuran-2-yl)-7-[(3R,5S)-3,5-dimethylpiperazin-1-yl]-2H-chromen-2-one]		* (maximum fold increase of ≤1.2)	0.3 to 1	191 to 193	
COc1cc(-c2cc3ccc(N4CCN[C@@H](C)C4)cc3oc2=O)ccc1F [Compound 577, 3-(4-fluoro-3-methoxyphenyl)-7-[(3S)-3-methylpiperazin-1-yl]-2H-chromen-2-one]		** (fold increase between >1.2 and ≤1.35)	1 to 3	189 to 191	
